{"source": "paper PMC10139140", "about": "“Synthesis of Novel 2-(Cyclopentylamino)thiazol-4(5H)-one Derivatives with Potential Anticancer, Antioxidant, and 11β-HSD Inhibitory Activities” (International Journal of Molecular Sciences, 2023)", "key": {"BJ cells": {"system": "BJ cells", "experiment": "MTS metabolic activity assay, BJ cells", "assay_type": "cell-based", "conditions": "Homo sapiens, 72 h, read-out: Cell metabolic activity (MTS), % of untreated control", "method": "(§1) The BJ (CRL-2522), Caco-2 (HTB-37), PANC-1 (CRL-1469), U-118 MG (HTB-15), SK-MEL-30 (ACC 151), and MDA-MB-231 (HTB-26) cell lines were purchased from ATCC (Manassas, VA, USA) or DSMZ (Braunschweig, GERMANY). Cells were cultured in accordance with manufacturers' recommendations in a DMEM, MEM, or RPMI-1640 (Sigma, Saint Louis, MO, USA; Gibco, Waltham, MA, USA), supplemented with 10% FBS, except for Caco-2 (20%) (Thermo Fisher Scientific, Waltham, MA, USA) and 1% antibiotic mix solution (penicillin, streptomycin; Thermo Fisher Scientific, Waltham, MA, USA) in a humidified atmosphere with 5% CO2 at 37 °C. All cell lines were cultured in T75 cell culture flasks or cell culture dishes to reach 80–90% confluency and seeded at a standard density of 5 × 10^3 cells/0.32 cm^2, except for BJ cells at 2 × 10^3 cells/0.32 cm^2.\n(§2) The MTS ((MTS: 3-(4,5-dimethylthiazol-2-yl)-5-(3-carboxymethoxyphenyl)-2-(4-sulfophenyl)-2H-tetrazolium)) assay was performed following previously reported method. Briefly, cells were seeded at a standard density into 96-well flat-bottom plates and incubated for 24 h, followed by the treatment. The various concentrations of compounds were prepared and treated for the next 72 h. MTS solution was added for 3h and incubated at standard conditions, protected from light. Finally, the absorbance was read at […] and 620 nm wavelengths using a Synergy H1 microplate reader (BioTek, Santa Clara, CA, USA). The results are presented as %, while untreated control cells were considered 100%."}, "[1]": {"system": "human pancreatic carcinoma (PANC-1)", "experiment": "MTS metabolic activity assay, PANC-1 cells", "assay_type": "cell-based", "conditions": "Homo sapiens, 72 h, read-out: Cell metabolic activity (MTS), % of untreated control", "method": "as §1, §2"}, "[2]": {"system": "skin melanoma (SK-MEL-30)", "experiment": "MTS metabolic activity assay, SK-MEL-30 cells", "assay_type": "cell-based", "conditions": "Homo sapiens, 72 h, read-out: Cell metabolic activity (MTS), % of untreated control", "method": "as §1, §2"}, "[3]": {"system": "human colon carcinoma (Caco-2)", "experiment": "MTS metabolic activity assay, Caco-2 cells", "assay_type": "cell-based", "conditions": "Homo sapiens, 72 h, read-out: Cell metabolic activity (MTS), % of untreated control", "method": "as §1, §2"}, "11β-HSD1": {"biological_target": "T1, 11β-HSD1 (Homo sapiens, UniProt P28845)", "T1 construct": "Human liver microsomes were used as a source of 11β-HSD1 enzyme; tissue XenoTech Lot No. 1410013; host or cells: pooled human liver microsomes, mixed gender", "T1 sequence (P28845 whole entry)": "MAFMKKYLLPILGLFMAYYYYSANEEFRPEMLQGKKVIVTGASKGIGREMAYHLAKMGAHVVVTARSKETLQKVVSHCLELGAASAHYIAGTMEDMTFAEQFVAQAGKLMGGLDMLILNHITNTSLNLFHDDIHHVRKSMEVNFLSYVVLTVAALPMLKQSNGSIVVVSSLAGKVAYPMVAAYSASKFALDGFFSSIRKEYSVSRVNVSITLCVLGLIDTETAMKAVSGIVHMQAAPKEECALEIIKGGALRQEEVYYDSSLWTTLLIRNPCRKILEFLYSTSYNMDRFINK", "experiment": "Inhibition of 11β-HSD1 (cortisone to cortisol, human liver microsomes, cortisol ELISA)", "assay_type": "biochemical", "method": "The resulting solution with a final volume of 100 µL was incubated for 2.5 h at 37 °C. To stop the reaction, 10 µL of a 100 µM solution of 18β-glycyrrhetinic acid in PBS was added. The level of cortisol obtained in the reaction was measured by commercially available ELISA kit.\nAs a control, analogous tests without the addition of inhibitors were used. Half the inhibitory concentration (causing 50% reduction of cortisol or cortisone) was read from the chart."}, "11β-HSD2": {"biological_target": "T2, 11β-HSD2 (Homo sapiens, UniProt P80365)", "T2 construct": "Human liver microsomes were used as a source of 11β-HSD2 enzyme; tissue XenoTech Lot No. 1710160; host or cells: human kidney microsomes, mixed gender (method text says human liver microsomes)", "T2 sequence (P80365 1-405)": "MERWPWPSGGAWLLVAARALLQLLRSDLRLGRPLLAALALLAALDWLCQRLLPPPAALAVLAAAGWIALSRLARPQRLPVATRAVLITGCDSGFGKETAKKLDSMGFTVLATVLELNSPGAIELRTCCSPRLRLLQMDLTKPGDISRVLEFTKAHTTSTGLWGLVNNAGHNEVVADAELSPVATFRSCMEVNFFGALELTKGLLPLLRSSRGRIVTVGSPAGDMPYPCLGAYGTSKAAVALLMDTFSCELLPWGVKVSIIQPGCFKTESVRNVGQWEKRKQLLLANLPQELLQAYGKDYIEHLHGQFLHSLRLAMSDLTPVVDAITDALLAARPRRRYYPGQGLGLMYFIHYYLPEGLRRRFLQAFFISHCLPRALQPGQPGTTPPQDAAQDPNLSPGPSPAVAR", "experiment": "Inhibition of 11β-HSD2 (cortisol to cortisone, human microsomes, cortisol ELISA)", "assay_type": "biochemical", "conditions": "2.5 h, 37 °C", "method": "The resulting solution with a final volume of 100 µL was incubated for 2.5 h at 37 °C. […] The level of unreacted cortisol was measured by a commercially available ELISA kit."}, "[4]": {"system": "human breast carcinoma (MDA-MB-231)", "experiment": "MTS metabolic activity assay, MDA-MB-231 cells", "assay_type": "cell-based", "conditions": "Homo sapiens, 72 h, read-out: Cell metabolic activity (MTS), % of untreated control", "method": "as §1, §2"}, "glioma (U-118 MG)": {"system": "glioma (U-118 MG)", "experiment": "MTS metabolic activity assay, U-118 MG cells", "assay_type": "cell-based", "conditions": "Homo sapiens, U-118-MG, U118-MG, 72 h, read-out: Cell metabolic activity (MTS), % of untreated control", "method": "as §1, §2"}}}
{"smiles": "CCC1SC(NC2CCCC2)=NC1=O", "note": "(stereo not drawn) [Compound 3b, 2-(cyclopentylamino)-5-ethylthiazol-4(5H)-one]", "values": [{"measurement": "viability at 10 µM", "setting": "BJ cells; 10 µM", "result": 97.9, "unit": "%"}, {"measurement": "viability at 20 µM", "setting": "BJ cells; 20 µM", "result": 98.5, "unit": "%"}, {"measurement": "viability at 50 µM", "setting": "BJ cells; 50 µM", "result": 102, "unit": "%"}, {"measurement": "viability at 100 µM", "setting": "BJ cells; 100 µM", "result": 108, "unit": "%"}, {"measurement": "viability at 200 µM", "setting": "BJ cells; 200 µM", "result": 110, "unit": "%"}, {"measurement": "viability at 300 µM", "setting": "BJ cells; 300 µM", "result": 112, "unit": "%"}, {"measurement": "viability at 500 µM", "setting": "BJ cells; 500 µM", "result": 111, "unit": "%"}, {"measurement": "viability at 10 µM", "setting": "[1]; PANC-1, 10 µM", "result": 103, "unit": "%"}, {"measurement": "viability at 20 µM", "setting": "[1]; PANC-1, 20 µM", "result": 102, "unit": "%"}, {"measurement": "viability at 50 µM", "setting": "[1]; PANC-1, 50 µM", "result": 107, "unit": "%"}, {"measurement": "viability at 100 µM", "setting": "[1]; PANC-1, 100 µM", "result": 112, "unit": "%"}, {"measurement": "viability at 200 µM", "setting": "[1]; PANC-1, 200 µM", "result": 113, "unit": "%"}, {"measurement": "viability at 300 µM", "setting": "[1]; PANC-1, 300 µM", "result": 110, "unit": "%"}, {"measurement": "viability at 500 µM", "setting": "[1]; PANC-1, 500 µM", "result": 105, "unit": "%"}, {"measurement": "viability at 10 µM", "setting": "[2]; SK-MEL-30, 10 µM", "result": 93.7, "unit": "%"}, {"measurement": "viability at 20 µM", "setting": "[2]; SK-MEL-30, 20 µM", "result": 99, "unit": "%"}, {"measurement": "viability at 50 µM", "setting": "[2]; SK-MEL-30, 50 µM", "result": 97.4, "unit": "%"}, {"measurement": "viability at 100 µM", "setting": "[2]; SK-MEL-30, 100 µM", "result": 105, "unit": "%"}, {"measurement": "viability at 200 µM", "setting": "[2]; SK-MEL-30, 200 µM", "result": 101, "unit": "%"}, {"measurement": "viability at 300 µM", "setting": "[2]; SK-MEL-30, 300 µM", "result": 98.4, "unit": "%"}, {"measurement": "viability at 500 µM", "setting": "[2]; SK-MEL-30, 500 µM", "result": 93.8, "unit": "%"}, {"measurement": "viability at 10 µM", "setting": "[3]; Caco-2, 10 µM", "result": 87.9, "unit": "%"}, {"measurement": "viability at 20 µM", "setting": "[3]; Caco-2, 20 µM", "result": 87.3, "unit": "%"}, {"measurement": "viability at 50 µM", "setting": "[3]; Caco-2, 50 µM", "result": 84.4, "unit": "%"}, {"measurement": "viability at 100 µM", "setting": "[3]; Caco-2, 100 µM", "result": 79.8, "unit": "%"}, {"measurement": "viability at 200 µM", "setting": "[3]; Caco-2, 200 µM", "result": 77, "unit": "%"}, {"measurement": "viability at 300 µM", "setting": "[3]; Caco-2, 300 µM", "result": 73.2, "unit": "%"}, {"measurement": "viability at 500 µM", "setting": "[3]; Caco-2, 500 µM", "result": 66.1, "unit": "%"}, {"measurement": "IC50", "setting": "11β-HSD1", "result": "> 10", "unit": "µM"}, {"measurement": "inhibition at 10 µM", "setting": "11β-HSD1; 10 µM, 2.5 h, 37 °C", "result": "21.3 ± 3.29", "unit": "%"}, {"measurement": "inhibition at 10 µM", "setting": "11β-HSD2", "result": "39.7 ± 0.07", "unit": "%"}, {"measurement": "viability at 10 µM", "setting": "[4]; MDA-MB-231, 10 µM", "result": 97.5, "unit": "%"}, {"measurement": "viability at 20 µM", "setting": "[4]; MDA-MB-231, 20 µM", "result": 97.8, "unit": "%"}, {"measurement": "viability at 50 µM", "setting": "[4]; MDA-MB-231, 50 µM", "result": 94.5, "unit": "%"}, {"measurement": "viability at 100 µM", "setting": "[4]; MDA-MB-231, 100 µM", "result": 95.3, "unit": "%"}, {"measurement": "viability at 200 µM", "setting": "[4]; MDA-MB-231, 200 µM", "result": 86.5, "unit": "%"}, {"measurement": "viability at 300 µM", "setting": "[4]; MDA-MB-231, 300 µM", "result": 75.3, "unit": "%"}, {"measurement": "viability at 500 µM", "setting": "[4]; MDA-MB-231, 500 µM", "result": 57.4, "unit": "%"}, {"measurement": "viability at 10 µM", "setting": "glioma (U-118 MG); 10 µM", "result": 110, "unit": "%"}, {"measurement": "viability at 20 µM", "setting": "glioma (U-118 MG); 20 µM", "result": 107, "unit": "%"}, {"measurement": "viability at 50 µM", "setting": "glioma (U-118 MG); 50 µM", "result": 111, "unit": "%"}, {"measurement": "viability at 100 µM", "setting": "glioma (U-118 MG); 100 µM", "result": 113, "unit": "%"}, {"measurement": "viability at 200 µM", "setting": "glioma (U-118 MG); 200 µM", "result": 113, "unit": "%"}, {"measurement": "viability at 300 µM", "setting": "glioma (U-118 MG); 300 µM", "result": 112, "unit": "%"}, {"measurement": "viability at 500 µM", "setting": "glioma (U-118 MG); 500 µM", "result": 107, "unit": "%"}]}
